Values of other authors in US7700798B1, “Erogorgiaene congeners and methods and intermediates useful in the preparation of same” (The Research Foundation of State University of New York, priority 2005, dated 2010).

Settings: literature statement, comparison with the commercially used natural products

Substance: Elisabethadione
- anti-inflammatory potency compared with the pseudopterosins: more potent than the related and commercially used natural products, the pseudopterosins
